In ChEMBL document CHEMBL4052697, “Chimeric analogs of human β-defensin 1 and θ-defensin disrupt pre-established bacterial biofilms” (2017):
In brackets after ≈: the same amount, converted by molar mass. Activity calls are given as the source filed them. The calls are words filed in the database; no cut-off is given here. Positions of bridges follow the written chain, without caps; N, C: chain ends. Non-standard residues stand in square brackets, D forms with d. Residues, ends and D or L forms follow the SMILES beside them.

How the values were obtained:
Type in all cases: functional
[1] = tested on: Escherichia coli; assay: Antibiofilm activity against pre-established 36 hrs old bacterial biofilms of Escherichia coli MG1655 incubated for 4 hrs by XTT assay
[2] = tested on: Staphylococcus aureus; assay: Antibiofilm activity against pre-established 36 hrs old bacterial biofilms of Staphylococcus aureus NCTC 8530 incubated for 4 hrs by XTT assay
[3] = tested on: Staphylococcus aureus; assay: Antibiofilm activity against pre-established 36 hrs old bacterial biofilms of Staphylococcus aureus NCTC 8530 incubated for 4 hrs by […] LIVE/DEAD BacLight staining based confocal microscopy
[4] = tested on: Escherichia coli; assay: Antibiofilm activity against pre-established 36 hrs old bacterial biofilms of Escherichia coli MG1655 incubated for 4 hrs Antibiofilm activity against pre-established 36 hrs old bacterial biofilms of Escherichia coli MG1655 incubated for 4 hrs by LIVE/DEAD BacLight staining based confocal microscopy
[5] = tested on: Escherichia coli; assay: Bactericidal activity against Escherichia coli MG1655 planktonic forms
[6] = tested on: Staphylococcus aureus; assay: Bactericidal activity against Staphylococcus aureus NCTC 8530 planktonic forms
[7] = tested on: Staphylococcus aureus; assay: Antibiofilm activity against pre-established 36 hrs old bacterial biofilms of Staphylococcus aureus NCTC 8530 assessed as reduction in number of viable bacterial cells incubated for 4 hrs by XTT assay

CC[C@@H](C)[C@H]1NC(=O)[C@H]2CCCN2C(=O)[C@H](NC(=O)[C@@H](C)N)CSSC[C@H](C(=O)O)NC(=O)[C@@H]([C@H](C)CC)NC(=O)[C@@H](CCCNC(=N)N)NC(=O)[C@@H](CCCNC(=N)N)NC(=O)CNC(=O)[C@@H]([C@H](C)CC)NC(=O)[C@@H](CCCNC(=N)N)NC(=O)[C@@H](CCCCN)NC(=O)[C@@H](C)NC(=O)[C@@H](CCCCN)NC(=O)CNC(=O)[C@@H](CCCNC(=N)N)NC(=O)[C@@H](Cc2ccc(O)cc2)NC(=O)[C@@H]([C@H](C)O)NC(=O)CNC(=O)[C@@H](CCC(N)=O)NC(=O)[C@@H]([C@H](C)CC)NC(=O)[C@@H](CCCCN)NC(=O)[C@@H]([C@H](C)O)NC(=O)[C@@H](Cc2ccccc2)NC1=O
MBEC [1]: 200 µM | MBEC [2]: 200 µM | Activity [3]: Active | Activity [4]: Active | MBC [5]: 1 µM (≈ 2.74 µg/mL) | MBC [6]: 2 µM (≈ 5.47 µg/mL)

CC[C@H](C)[C@@H]1NC(=O)[C@H](CCCCN)NC(=O)[C@H]([C@@H](C)O)NC(=O)[C@H](Cc2ccccc2)NC(=O)[C@H]([C@@H](C)CC)NC(=O)[C@@H]2CCCN2C(=O)[C@@H](NC(=O)[C@H](C)N)CSSC[C@@H](C(=O)N[C@@H](CCCNC(=N)N)C(=O)O)NC(=O)[C@H](CCCCN)NC(=O)[C@H](C)NC(=O)[C@H](CCCNC(=N)N)NC(=O)CNC(=O)[C@H](CCCNC(=N)N)NC(=O)[C@H](Cc2ccc(O)cc2)NC(=O)[C@H]([C@@H](C)O)NC(=O)CNC(=O)[C@H](CCC(N)=O)NC1=O (H-ACPIFTKIQGTYRGRAKCR-OH; disulfide 2-18)
MBEC [7]: Active | MBC [5]: 5 µM (≈ 10.8 µg/mL) | MBC [6]: 5 µM (≈ 10.8 µg/mL)

CC[C@@H](C)[C@H]1NC(=O)[C@H](CCCCN)NC(=O)[C@H]([C@@H](C)O)NC(=O)[C@H](Cc2ccccc2)NC(=O)[C@@H]([C@H](C)CC)NC(=O)[C@@H]2CCCN2C(=O)[C@@H](NC(=O)[C@H](C)N)CSSC[C@@H](C(=O)N[C@@H](CCCNC(=N)N)C(=O)O)NC(=O)[C@H](CCCCN)NC(=O)[C@H](C)NC(=O)[C@@H](CCCNC(=N)N)NC(=O)CNC(=O)[C@@H](CCCNC(=N)N)NC(=O)[C@H](Cc2ccc(O)cc2)NC(=O)[C@H]([C@@H](C)O)NC(=O)CNC(=O)[C@H](CCC(N)=O)NC1=O (H-ACP[dI]FTK[dI]QGTY[dR]G[dR]AKCR-OH; disulfide 2-18)
MBEC [2]: inactive | MBEC [7]: Active | MBC [5]: 5 µM (≈ 10.8 µg/mL) | MBC [6]: 5 µM (≈ 10.8 µg/mL)

CC[C@H](C)[C@@H]1NC(=O)[C@H](CCCCN)NC(=O)[C@H]([C@@H](C)O)NC(=O)[C@H](Cc2ccccc2)NC(=O)[C@H]([C@@H](C)CC)NC(=O)[C@@H]2CCCN2C(=O)[C@@H](NC(=O)[C@H](C)N)CSSC[C@@H](C(=O)O)NC(=O)[C@H]([C@@H](C)CC)NC(=O)[C@@H](CCCNC(=N)N)NC(=O)[C@H](CCCNC(=N)N)NC(=O)CNC(=O)[C@@H]([C@@H](C)CC)NC(=O)[C@H](CCCNC(=N)N)NC(=O)[C@H](CCCCN)NC(=O)[C@H](C)NC(=O)[C@H](CCCCN)NC(=O)CNC(=O)[C@H](CCCNC(=N)N)NC(=O)[C@H](Cc2ccc(O)cc2)NC(=O)[C@H]([C@@H](C)O)NC(=O)CNC(=O)[C@H](CCC(N)=O)NC1=O
MBEC [2]: 150 µM | Activity [3]: Active | Activity [4]: Active | MBC [5]: 1 µM (≈ 2.74 µg/mL) | MBC [6]: 2 µM (≈ 5.47 µg/mL)
